Holding throughout (type): in vivo
Experiment [1] deals with Thrips tabaci. As to the kind of experiment: Example 6: onions against Thrips tabaci. As to conditions: population on leaves. The method, then: Plots 15 m^2 in size which are planted with onions are treated, in two replications, against Thrips tabaci. The application is effected with a knapsack sprayer which is operated with pressurized air. Here, the active substances Example (I-4), in a tank mix together with 0.2% a.s. rapeseed oil methyl ester (500 EW) and the commercial standard dimethoate and (380 EC), are tested at the specified application rates in a tank mix with 0.9% a.s. E-actipron (900 EC). The water application rate is 300 l/ha.
The test was evaluated 43 and 62 days after the treatment by scoring the destruction rate of the population on the leaves.

For experiment [2], the system named is oriental fruit moth (Laspeyresia molesta). Put plainly: Example 28: peach trees against oriental fruit moth. As to conditions: 41 d after treatment, Pyrifroxyfen (35 WP) 123, Acetamiprid (30 SG) 168, (I-4) (150 OD) 153 g a.s./ha. The method, then: Approx. 10-year-old peach trees are treated, in four replications, against the oriental fruit moth (Laspeyresia molesta). The application is carried out with a knapsack sprayer which is operated with pressurized air. Here, the active substance (I-4) (150 OD) is tested against the commercial standards Pyriproxyfen (35 WP) and Acetamiprid (30 SG) at the specified application rates. The water application rate is 935 l/ha.
The test is evaluated 41 days after the treatment by scoring the destruction rate of the animals on the trees.

For experiment [3], the system named is sawflies Hoplocampa sp. As to the kind of experiment: Example 31: apple trees against sawflies. As to conditions: 57 d after treatment, larvae on fruits, Thiacloprid (SC 480) 48 + deltamethrin 3.75 tank mix, (I-4) (150 OD) 48 g a.s./ha/m crown level. The method, then:
Apple trees cv. “Holsteiner Cox” in plots approx. 20 m^2 in size are treated, in 4 replications, against sawflies Hoplocampa sp. Here, the active substance Example (I-4) (150 OD) at the specified application rate is tested against a tank mix of the commercial standards Thiacloprid (SC 480) and Deltamethrin-liquid in the specified application rates. The application is carried out with a knapsack sprayer. Here, the treatment is effected with a water application rate of 500 l/ha/m crown level.
The test is evaluated 57 days after the treatment by scoring the destruction of the larvae on the fruits with the aid of the Abbott method.

Experiment [4] concerns Caliothrips phaseoli. Put plainly: Example 3: courgettes against Caliothrips phaseoli. The following applies: 8 d after treatment, nymphs on 5 leaves, Endosulfan (350 EC) 525, (I-4) (240 SC + 0.1% rapeseed oil methyl ester) 72 g a.s./ha. The method, then: Plots approx. 22 m^2 in size which are planted with courgettes cv. “Italiana negra” are treated, in three replications, against Caliothrips phaseoli. The application is effected with a motor-driven knapsack sprayer. Here, the active substance Example (I-4) (240 SC), in a tank mix together with 0.1% a.s. rapeseed oil methyl ester (500 EW) and the commercial standard endosulfan (350 EC), is tested at the specified application rates. The water application rate is approx. 510 l/ha.
The test is evaluated 8 days after the treatment by scoring the destruction of the animals (nymphs) on 5 leaves.

The test system of experiment [5] is Frankliniella occidentalis. As to the kind of experiment: Example 2: bell peppers against Frankliniella occidentalis. The following applies: Acrinathrin 60, (I-9) 54, (I-4) 60 g a.s./ha, (I-9)/(I-4) 240 SC + 0.1% rapeseed oil methyl ester. The method, then: Plots 10 m^2 in size which are planted with bell peppers cv. “Zingaro” are treated, in three replications, against Frankliniella occidentalis. The application is effected with a knapsack sprayer which is operated with pressurized air. Here, the active substances Example (I-9) (240 SC) and Example (I-4) (240 SC), in the form of a tank mix together with 0.1% a.s. rapeseed oil methyl ester (500 EW) and the commercial standard acrinathrin (075 EW), are applied at the specified application rates. Two applications are carried out at an interval of 24 days, with a water application rate of 1000 l/ha.
The test is evaluated 17 and 21 days after treatment 1 and 4 days after treatment 2 by scoring the destruction of the animals (nymphs) on the flowers.

For `CCOC(=O)OC1=C(c2cc(C)ccc2C)C(=O)N[C@]12CC[C@@H](OC)CC2` [Example (I-4)], in experiment [1] (43 d after treatment, Dimethoate (380 EC + 0.9% E-actipron) 380, (I-4) (+ 0.2% rapeseed oil methyl ester) 96 g a.s./ha), the “Efficacy (% Abbott) 43 d” value was 83.0 % Abbott. Further, the “Efficacy (% Abbott) 62 d” value in experiment [1] (62 d after treatment, Dimethoate 380, (I-4) 96 g a.s./ha) amounted to 84.5 % Abbott. Further, in experiment [2], the “Efficacy (% Abbott) 41 d” value is recorded as 48.1 % Abbott. Moreover, the “Efficacy (%) Abbott 57 d” value in experiment [3] worked out at 98%. Further, the “Efficacy (% Abbott) 8 d” value in experiment [4] stood at 71.3 % Abbott. Moreover, the “Efficacy (% Abbott) 4 d (2)” value in experiment [5] (4 d after treatment 2, nymphs on flowers) was 80 % Abbott. Moreover, the “Efficacy (% Abbott) 17 d (1)” value in experiment [5] (17 d after treatment 1, nymphs on flowers) was determined as 71 % Abbott. The “Efficacy (% Abbott) 21 d (1)” value in experiment [5] (21 d after treatment 1, nymphs on flowers) came out at 85 % Abbott.

Source of the values: patent US20090298903A1, “USE OF TETRAMIC ACID DERIVATIVES FOR INSECT CONTROL” (priority 2006, published 2009).
